# How the values were obtained:
# [1] = tested on: Aspergillus flavus; assay: MIC, YAG medium, Aspergillus flavus; format: cell-based; conditions: Aspergillus flavus; YAG medium; read-out: MIC A Flavus 01
# In short: (§1)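 Broth microdilution over doubling dilutions (50-0.05 mg/L). C. albicans in RPMI with 2% glucose and 0.135M MOPS (pH7.0), 1-2×10^3 cfu/ml, 24-48 hrs at 35° C; MIC = >80% growth inhibition by OD485. Aspergillus spp. in YAG (1% glucose, 1% ammonium chloride, 0.5% yeast extract), 1-2×10^4 cfu/ml, 24 hrs, >70% inhibition.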
# [2] = tested on: Aspergillus terreus; assay: MIC, YAG medium, Aspergillus terreus; format: cell-based; conditions: Aspergillus terreus; YAG medium; read-out: MIC A Terreus 4
# In short: as §1
# [3] = tested on: Aspergillus niger; assay: MIC, YAG medium, Aspergillus niger; format: cell-based; conditions: Aspergillus niger; YAG medium; read-out: MIC A Niger 1
# In short: as §1
# [4] = tested on: Aspergillus fumigatus AF293; assay: MIC, YAG medium, Aspergillus fumigatus AF293; format: cell-based; conditions: Aspergillus fumigatus, AF293; YAG medium; read-out: MIC A Fum. 293
# In short: as §1
# [5] = tested on: Aspergillus fumigatus AF210; assay: MIC, YAG medium, Aspergillus fumigatus AF210; format: cell-based; conditions: Aspergillus fumigatus, AF210; YAG medium; read-out: MIC A Fum. 210
# In short: as §1
# [6] = tested on: A Terreus 49; assay: MIC, YAG medium, A Terreus 49; format: cell-based, Aspergillus terreus; conditions: Aspergillus terreus; YAG medium; read-out: MIC A Terreus 49
# Method: Measurement of Minimum Inhibitory Concentrations (MICs)
# Between 1 and 5 mgs of compound were accurately weighed out into a sterile Eppendorf tube. The compound was dissolved in DMSO to give a solution containing 5 mg/ml. Tubes were stored at −20° C. until required.
# On the day of testing thawed solutions were vortex mixed to ensure homogeneity. 30 μl of solution was removed and added to 570 μl of sterile water in a separate sterile Eppendorf. The thoroughly mixed solution was used to prepare a series of doubling dilutions in water, in a deep well plate. Eleven replicate plates were prepared using a Minitrak by aspirating 20 μl from each well into eleven clear polystyrene 96 well plates.
# Spores of Aspergillus spp (Aspergillus fumigatus, Aspergillus terreus, Aspergillus niger and Aspergillus flavus) were harvested from cultures grown on Sabarauds agar for 5 days, and resuspended in PBS/Tween 80 to approx 1×10^7 cfu/ml Other filamentous fungi (Fusarium solani, Scedosporium spp., Trichophyton spp., Absidia corymbifera), were grown on Sabarauds agar for 2-10 days and spores/hyphae resuspended in PBS/Tween to give approx 1×10^7 cfU/ml. Candida species (Candida albicans, Candida glabrata, Candida krusei, Candida parapsilosis and Candida tropicalis) were grown on Sabarauds agar, cells were harvested from the agar using a sterile loop and resuspended in PBS/Tween 80 to approx 1×10^6 cfu/ml. Each organism suspension was diluted in RPMI medium, containing 2% glucose and 0.135M MOPS buffer (pH7.0) to 2×10^4 cfu/ml for Aspergillus spp and other filamentous fungi and 2×10^3 cfu/ml for yeast. 80 μl of an organism suspension was added to each well of the plate containing drug dilutions.
# This produced MIC plates with a drug range 50-0.05 mg/L and organism inocula of 1-2×10^4 cfu/ml for Aspergillus spp and other filamentous fungi and 1-2×10^3 cfu/ml for yeasts. All plates were incubated for 24-48 hrs at 35° C. Growth was assessed by monitoring the optical density at 485 nm for each well. The MIC of a compound is the lowest drug concentration that inhibits growth of an organism by >80% compared with a drug free control. MICs are recorded as mg/L. Other growth media can be used for susceptibility testing, and the activity of the described compounds can also be assessed in a medium comprising, 1% glucose, 1% ammonium chloride and 0.5% yeast extract (YAG medium). To perform MIC tests in this medium, dilutions of compounds are prepared in microtitre plates as described above. Fungal strains to be tested are grown and harvested in an identical manner to that described above, each organism suspension is then diluted in YAG medium to 2×10^4 cfu/ml for Aspergillus spp and other filamentous fungi and 2×10^3 cfu/ml for yeast. 80 μl of an organism suspension was added to each well of the plate containing drug dilutions. This produced MIC plates with a drug range 50-0.05 mg/L and organism inocula of 1-2×10^4 cfu/ml for Aspergillus spp and other filamentous fungi and 1-2×10^3 cfu/ml for yeasts. All plates were incubated for 24 hrs at 35° C. Growth was assessed by monitoring the optical density at 485 nm for each well. The MIC of a compound is the lowest drug concentration that inhibits growth of an organism by >70% compared with a drug free control. MICs are recorded as mg/L. In cases where the MIC of an organism is […]0.05 mg/L the MIC is repeated using a concentration range of 0.5-0.0005 mg/L. MIC tests in YAG medium have more clear-cut endpoints and have slightly lower MICS than those performed in RPMI medium.
# The following organisms were tested: Aspergillus fumigatus AF293 and Aspergillus fumigatus AF210, Aspergillus niger, Aspergillus terreus, Aspergillus favus, Candida albicans, Candida krusei, Candida tropicalis, Candida glabrata, Candida parapsilosis, Trichophyton rubrum, Trichophyton mentagrophytes, Scedosporium prolificans, Scedosporium apiospermum, Absidia corymbifera, Fusarium solani.
Structure (SMILES),MIC [1],MIC [2],MIC [3],MIC [4],MIC [5],MIC [6]
"COC(=O)c1csc(NC(=O)C(=O)c2c(-c3ccccc3)cc3ccccn23)c1 [Example 154, 5-[2-Oxo-2-(2-phenyl-indolizin-3-yl)-acetylamino]-thiophene-3-carboxylic acid methyl ester]",0.25 µg/mL,0.8 µg/mL,0.05 µg/mL,1.6 µg/mL,1.6 µg/mL,0.12 µg/mL
"Cc1ccc(NC(=O)C(=O)c2c(-c3cccnc3)cc3ccccn23)cc1 [Example 173, 2-Oxo-2-(2-pyridin-3-yl-indolizin-3-yl)-N-p-tolyl-acetamide]",0.12 µg/mL,0.12 µg/mL,0.5 µg/mL,0.5 µg/mL,0.4 µg/mL,0.12 µg/mL
"COc1ccc2cc(-c3ccccc3)c(C(=O)C(=O)Nc3ccc(C)cc3)n2c1 [Example 196, 2-(6-Methoxy-2-phenyl-indolizin-3-yl)-2-oxo-N-p-tolyl-acetamide]",0.12 µg/mL,0.12 µg/mL,0.5 µg/mL,0.8 µg/mL,0.8 µg/mL,0.062 µg/mL
"O=C(Nc1ccccc1F)C(=O)c1c(-c2ccccc2)cc2ccccn12 [Example 201, N-(2-Fluoro-phenyl)-2-oxo-2-(2-phenyl-indolizin-3-yl)-acetamide]",0.12 µg/mL,0.015 µg/mL,0.015 µg/mL,0.5 µg/mL,0.25 µg/mL,0.015 µg/mL

# Further compounds by falling MIC [1], results first:
MIC [1],MIC [2],MIC [3],MIC [4],MIC [5],MIC [6],Structure (SMILES)
0.12 µg/mL,0.12 µg/mL,0.25 µg/mL,1.6 µg/mL,3.1 µg/mL,0.062 µg/mL,"COc1ccc(NC(=O)C(=O)c2c(-c3cccs3)cc3ccccn23)c(OC)c1 [Example 166, N-(2,4-Dimethoxy-phenyl)-2-oxo-2-(2-thiophen-2-yl-indolizin-3-yl)-acetamide]"
0.062 µg/mL,0.06 µg/mL,0.25 µg/mL,0.8 µg/mL,1.6 µg/mL,0.062 µg/mL,"Cc1ccc(NC(=O)C(=O)c2c(-c3cccs3)cc3ccccn23)cc1 [Example 165, 2-Oxo-2-(2-thiophen-2-yl-indolizin-3-yl)-N-p-tolyl-acetamide]"
0.062 µg/mL,0.25 µg/mL,0.5 µg/mL,1.6 µg/mL,1.6 µg/mL,0.062 µg/mL,"COc1ccc(NC(=O)C(=O)c2c(-c3cccs3)cc3ccccn23)cn1 [Example 167, N-(6-Methoxy-pyridin-3-yl)-2-oxo-2-(2-thiophen-2-yl-indolizin-3-yl)-acetamide]"
0.062 µg/mL,0.015 µg/mL,0.031 µg/mL,0.25 µg/mL,0.25 µg/mL,0.015 µg/mL,"O=C(Nc1ccc(F)cc1)C(=O)c1c(-c2ccccc2)cc2ccccn12 [Example 200, N-(4-Fluoro-phenyl)-2-oxo-2-(2-phenyl-indolizin-3-yl)-acetamide]"
0.03 µg/mL,0.031 µg/mL,0.12 µg/mL,0.5 µg/mL,0.12 µg/mL,0.008 µg/mL,"COc1ccc(NC(=O)C(=O)c2c(-c3ccc(F)cc3)cc3ccccn23)cc1 [Example 155, 2-[2-(4-Fluoro-phenyl)-indolizin-3-yl]-N-(4-methoxy-phenyl)-2-oxo-acetamide]"
0.015 µg/mL,0.031 µg/mL,0.031 µg/mL,0.25 µg/mL,0.25 µg/mL,0.015 µg/mL,"Cc1ccc(NC(=O)C(=O)c2c(-c3ccc(F)cc3)cc3ccccn23)cc1 [Example 156, 2-[2-(4-Fluoro-phenyl)-indolizin-3-yl]-2-oxo-N-p-tolyl-acetamide]"
